Patent US20260240851A1, “Treatment of Parkinson's Disease in a Patient Using a Glucocerebrosidase Activator” (BIAL - R&D Investments, S.A., priority 2023, published 2026)
Read-outs that look alike come from different tables or passages of the source.

Key:
[1] = LTI-291-001 single ascending dose study: plasma pharmacokinetics and food effect; format: in vivo, human; settings: for Vd/F: read-out: Vz/F
Method: This study was a first-in-human Phase 1, randomized, double-blind, placebo-controlled, single-ascending dose study to evaluate the safety and tolerability, PK, and PD of escalating single oral doses of Compound A (3, 10, 30, and 90 mg) in 4 cohorts of healthy subjects. A total of 32 subjects received a single oral dose of Compound A (8 per dose group) and 8 subjects received placebo. The effect of food on the PK of Compound A was evaluated by administering a second single oral dose of 10 mg Compound A to the subjects in Cohort 2 on a separate occasion, after subjects had completed a high-fat breakfast. Blood samples for Compound A PK were collected up to 48 hours after each dose.

[2] = LTI-291-001: CNS (NeuroCart) assessments; format: in vivo, human; settings: single doses 3-90 mg, healthy subjects
Method: The pharmacodynamic evaluations consisted of a battery of CNS (NeuroCart®) assessments, including Saccadic Eye Movements, Smooth Pursuit Eye Movements, Adaptive Tracking, Body Sway, Visual Verbal Learning Test, and EEG. GluCer was measured in plasma and PBMCs as a biomarker of pharmacological effect.

[3] = LTI-291-002: CNS (NeuroCart) assessments; format: in vivo, human
Method: This study was a phase 1, randomized, double-blind, placebo-controlled, multiple ascending dose study of Compound A in 4 cohorts of middle-aged to elderly healthy participants (aged 52 to 75 years). […] A total of 39 healthy subjects were enrolled in 4 sequential cohorts. Subjects in each cohort received once-daily oral doses of 3 mg (n=7), 10 mg (n=8), 30 mg (n=8), or 60 mg (n=8) Compound A or placebo (n=8) for 14 days. Pharmacokinetic parameters were determined for each dose at Day 1, Day 7, and Day 14. Cerebrospinal fluid samples for Compound A concentrations were measured before the first dose and 4 hours after the last dose for each dose level. GluCer, glucosyl sphingosine (GluSph), and lactosyl-ceramide (LacCer) were measured in plasma, PBMCs, and CSF as biomarkers of pharmacological effects. Pharmacodynamic measurements consisted of battery of CNS (NeuroCart®) assessments including Saccadic Eye Movements, Smooth Pursuit Eye Movements, Adaptive Tracking, Body Sway, Visual Verbal Learning Test, and pharmaco-EEG.

[4] = BIA 28-6156-106: safety and tolerability; format: in vivo, human
Method: This was a Phase 1, single-dose, mass balance recovery study of ^14C-Compound A in 1 cohort of healthy male subjects, aged 30 to 65 years. A total of 6 subjects received a single oral dose of 60 mg Compound A, containing not more than 3.7 MBq ^14C, under fasted conditions. Objectives included determining the routes and rates of elimination of ^14C-Compound A, identifying the structure of metabolites that account for more than 10% of circulating total radioactivity in plasma and total radioactive dose in urine and feces, exploring the PK of Compound A, evaluating the extent of distribution of TR into blood cells, and gathering additional safety and tolerability information for Compound A.

[5] = BIA 28-6156-107 DDI: effect of multiple-dose carbamazepine on single-dose PK of Compound A; format: in vivo, human; settings: for Tmax / half-life: both sexes, human, in vivo, oral; for Tmax: read-out: Median Tmax; for half-life: read-out: geometric mean t1/2 (converted)
[6] = BIA 28-6156-107: safety and tolerability; format: in vivo, human
[7] = BIA 28-6156-110 DDI, rosuvastatin portion; format: in vivo, human; settings: after 6 days of dosing with 60 mg, rosuvastatin portion
Method: In Cohort 1, a single oral dose of 10 mg rosuvastatin was administered alone on Day 1. No drug was administered on Day 2. From Day 3 to Day 8, a single daily dose of 60 mg Compound A was administered.

[8] = after 6 days of dosing with 60 mg, Sinemet portion
Method: This was a Phase 1, non-randomized, open-label, 2-cohort, cross-over, DDI study in healthy male and female subjects.
In Cohort 1, a single oral dose 100 mg/25 mg levodopa-carbidopa (Sinemet®) IR was administered alone on Day 1.

[9] = J. M den Heijer, 2021; cited from earlier work
[10] = 3 mg fasted, single oral dose, geometric mean
[11] = 10 mg fasted, single oral dose, geometric mean
[12] = 10 mg fed, single oral dose, geometric mean
[13] = 10 mg, high-fat breakfast vs fasted
[14] = 30 mg fasted, single oral dose, geometric mean
[15] = 90 mg fasted, single oral dose, geometric mean
[16] = human, plasma, po, 3 mg, 3 mg fasted, single oral dose, geometric mean
[17] = human, plasma, po, 10 mg, 10 mg fasted, single oral dose, geometric mean
[18] = human, plasma, po, 10 mg, 10 mg fed, single oral dose, geometric mean
[19] = human, plasma, po, 30 mg, 30 mg fasted, single oral dose, geometric mean
[20] = human, plasma, po, 90 mg, 90 mg fasted, single oral dose, geometric mean
[21] = Compound A + carbamazepine vs Compound A alone
[22] = 60 mg Compound A administered alone

`CCCCCO[C@H]1CC[C@H](NC(=O)c2cnn3c(C)cc(C)nc23)CC1` [Compound A, 5,7-dimethyl-N-((1S*,4S)-4-(pentyloxy)cyclohexyl)pyrazolo[1,5-a]pyrimidine-3-carboxamide] gave an AUC0-inf/dose [1, 10] of 754 ng·h/mL/mg, a Cmax/dose [1, 10] of 36.4 ng/mL/mg and an AUC0-inf/dose [1, 11] of 756 ng·h/mL/mg. It also gave a Cmax/dose [1, 11] of 32.8 ng/mL/mg, a Tmax ([1]; 10 mg fasted, single oral dose, median) of 1.01 h and an AUC0-inf/dose [1, 12] of 853 ng·h/mL/mg. For the same compound, the Cmax/dose [1, 12] was 23.4 ng/mL/mg, the “ratio of geometric means fed to fasting, AUC0-inf” value [1, 13] was 111% and the “ratio of geometric means fed to fasting, AUC0-last” value [1, 13] was 103%. The “ratio of geometric means fed to fasting, Cmax” value [1, 13] was 71.3%, the AUC0-inf/dose [1, 14] was 821 ng·h/mL/mg and the Cmax/dose [1, 14] was 32.0 ng/mL/mg. The AUC0-inf/dose [1, 15] was 704 ng·h/mL/mg, the Cmax/dose [1, 15] was 29.4 ng/mL/mg and the “total exposure (Cmax and AUC0-inf) versus dose” value ([1]; entire dose range 3-90 mg) was “increase in a dose proportional manner”. For the same compound, the half-life ([1]; human, plasma, oral, across fasted and fed groups, read-out: Geometric mean t1/2) was 21.2 to 23.4 h, the Tmax ([1]; human, plasma, oral, single dose 3-90 mg, fasted, medians across dose groups, read-out: median Tmax) was 1 to 3 h and the Tmax ([1]; human, plasma, oral, single dose 3-90 mg, fasted, minimum to maximum, read-out: Tmax, range) was 1 to 8.2 h. It also gave an AUC(0-inf) [1, 16] of 2260 ng·h/mL, an AUC(0-t) [1, 16] of 1560 ng·h/mL and a Cmax [1, 16] of 109 ng/mL. It also gave a Vd/F [1, 16] of 40.5 L, a half-life ([1]; human, plasma, po, 3 mg, 3 mg fasted, single oral dose, geometric mean, read-out: t1/2 (converted)) of 21.2 h and a Tmax ([1]; human, plasma, po, 3 mg, 3 mg fasted, single oral dose, median, read-out: Tmax) of 1.48 h. For the same compound, the AUC(0-inf) [1, 17] was 7560 ng·h/mL, the AUC(0-t) [1, 17] was 5690 ng·h/mL and the Cmax [1, 17] was 328 ng/mL. For the same compound, the Vd/F [1, 17] was 42.4 L, the half-life ([1]; human, plasma, po, 10 mg, 10 mg fasted, single oral dose, geometric mean, read-out: t1/2 (converted)) was 22.2 h and the Tmax ([1]; human, plasma, po, 10 mg, 10 mg fasted, single oral dose, median, read-out: Tmax) was 1 h. It also gave an AUC(0-inf) [1, 18] of 8530 ng·h/mL, an AUC(0-t) [1, 18] of 5860 ng·h/mL and a Cmax [1, 18] of 234 ng/mL. It also gave a Vd/F [1, 18] of 39.6 L, a half-life ([1]; human, plasma, po, 10 mg, 10 mg fed, single oral dose, geometric mean, read-out: t1/2 (converted)) of 23.4 h and a Tmax ([1]; human, plasma, po, 10 mg, 10 mg fed, single oral dose, median, read-out: Tmax) of 8 h. For the same compound, the AUC(0-inf) [1, 19] was 24600 ng·h/mL, the AUC(0-t) [1, 19] was 18400 ng·h/mL and the Cmax [1, 19] was 961 ng/mL. It also gave a Vd/F [1, 19] of 40.8 L, a half-life ([1]; human, plasma, po, 30 mg, 30 mg fasted, single oral dose, geometric mean, read-out: t1/2 (converted)) of 23.2 h and a Tmax ([1]; human, plasma, po, 30 mg, 30 mg fasted, single oral dose, median, read-out: Tmax) of 3.02 h. For the same compound, the AUC(0-inf) [1, 20] was 63400 ng·h/mL, the AUC(0-t) [1, 20] was 47800 ng·h/mL and the Cmax [1, 20] was 2640 ng/mL. For the same compound, the Vd/F [1, 20] was 47.7 L, the half-life ([1]; human, plasma, po, 90 mg, 90 mg fasted, single oral dose, geometric mean, read-out: t1/2 (converted)) was 23.3 h and the Tmax ([1]; human, plasma, po, 90 mg, 90 mg fasted, single oral dose, median, read-out: Tmax) was 2 h. For the same compound, the “effects on CNS (Neurocart) tests” value [2] was “no dose-dependent effects”, the “EEG Alpha-power Pz-Oz, eyes closed” value ([3]; 3 mg vs placebo) was “significant decrease” and the “effects on CNS (Neurocart) tests” value ([3]; 3-60 mg daily for 14 days) was “no dose-dependent effects”. The saccadic inaccuracy ([3]; 10 and 30 mg groups vs placebo) was “significant increase”, the “saccadic peak velocity or reaction time” value ([3]; vs placebo) was “No changes” and the “vital signs, laboratory safety assessments, ECG parameters” value ([4]; in vivo) was “no clinically significant safety observations”. For the same compound, the “relatedness of AEs” value ([4]; investigator assessment) was “unrelated to the IMP”, the “deaths, SAEs, severe AEs, discontinuations due to AEs” value ([4]; single 60 mg dose) was “No deaths, other SAEs, severe AEs, or discontinuations due to AEs” and the “subjects reporting mild headaches” value ([4]; single 60 mg dose) was 33.3%. For the same compound, the “subjects reporting moderate tinea cruris” value ([4]; single 60 mg dose) was 16.7%, the “subjects reporting AEs” value ([4]; single 60 mg dose, 6 subjects) was 50.0% and the “AUC0-inf ratio of geometric least squares means (point estimate)” value [5, 21] was 0.363. For the same compound, the “AUC0-last ratio of geometric least squares means (point estimate)” value [5, 21] was 0.367, the “Cmax ratio of geometric least squares means (point estimate)” value [5, 21] was 0.877 and the Tmax [5, 22] was 1 h. The half-life [5, 22] was 28 h, the Tmax ([5]; 60 mg Compound A coadministered with carbamazepine) was 2 h and the half-life ([5]; Compound A coadministered with carbamazepine) was 12 h. The “reduction of AUC0-inf” value ([5]; with carbamazepine vs alone) was 64%, the “reduction of AUC0-last” value ([5]; with carbamazepine vs alone) was 63% and the “reduction of Cmax” value ([5]; with carbamazepine vs alone) was “approximately 12%”. The AEs ([6]; 60 mg Compound A with 25 mg/100 mg immediate-release carbidopa-levodopa) was “No AEs were reported”, the “subjects reporting AEs” value ([6]; 60 mg Compound A with 300 mg extended-release carbamazepine) was 25.0% and the “subjects reporting AEs” value ([6]; after 60 mg Compound A alone, 12 subjects) was 16.7%. For the same compound, the SAEs ([6]; in vivo) was “No SAEs were reported”, the “vital signs, physical examinations, ECG parameters, C-SSRS” value ([6]; in vivo) was “no clinically significant safety observations” and the “steady state concentrations of Compound A” value [7] was “appeared not to have been reached”. For the same compound, the “steady state concentrations of Compound A” value [8] was “appeared not to have been reached” and the “safety and tolerability in healthy humans” value [9] was “generally well tolerated”.
